Here are results for two compounds from paper PMC6628623, “Effects of Destruxin A on Silkworm’s Immunophilins” (Toxins, 2019).

Where a SMILES comes first, the peptide text is derived from it. [ ]: non-standard residue; d: D form. dLac(3-vinyl) = C=CC[C@@H](O)C(=O)O; NMeV = CN[C@H](C(=O)O)C(C)C; NMeA = CN[C@@H](C)C(=O)O; βAla = NCCC(=O)O

A word on the Kd: it is the free concentration of one partner at which half of the binding sites on the other are occupied at equilibrium, for simple one-to-one binding. A lower Kd goes with a tighter complex.

For experiment [1], the target named is T1, BmPPI (Bombyx mori, UniProt Q1HQ20).
T1 construct: cyclophilin superfamily
T1 sequence (Q1HQ20 1-171): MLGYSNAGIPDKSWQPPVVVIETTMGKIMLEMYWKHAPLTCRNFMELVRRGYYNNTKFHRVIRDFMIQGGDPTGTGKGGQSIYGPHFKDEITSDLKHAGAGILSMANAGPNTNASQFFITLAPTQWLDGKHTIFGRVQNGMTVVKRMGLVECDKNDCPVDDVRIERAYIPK
In words: bio-layer interferometry, His-tagged protein on Ni-NTA biosensor. It is filed as binding. From the text:
bio-layer interferometry, His-tagged protein on Ni-NTA biosensor on BmPPI
In general terms: BLI is a label-free optical method that tracks binding on a fibre tip over time.

Experiment [2] addresses Bmo.3174 (predicted B. mori cell division cycle 5-like protein, BmCDC5), DNA-binding-domain fusion (Bombyx mori (silkworm)). In words: two-hybrid; insect two-hybrid (I2H) in Spodoptera frugiperda Sf-9 cells co-transfected with AD, DBD and PIE-Luc vectors; luciferase read-out (lumen value) against untransfected Sf-9 cells (CK, 40); 27 °C.

The compound `C=CC[C@H]1OC(=O)CCNC(=O)[C@H](C)N(C)C(=O)[C@H](C(C)C)N(C)C(=O)[C@H]([C@@H](C)CC)NC(=O)[C@@H]2CCCN2C1=O` [DA, Destruxin A] (cyclo(I[NMeV][NMeA][βAla][dLac(3-vinyl)]P)) yielded a Kd in experiment [1] of 1980 µM.

In the case of “peptidyl-prolyl cis-trans isomerase (BmPPI), activation-domain fusion (natural protein)”, the lumen value (luciferase, I2H) in experiment [2] is 580.
